Publication PMC4399838, “Antipsychotic-Like Effect of the Muscarinic Acetylcholine Receptor Agonist BuTAC in Non-Human Primates” (PLoS ONE, 2015)

Legend:
[1] = target: T1, human M5 muscarinic receptor (Homo sapiens, UniProt P08912); parameters: method as in Watt et al. 2013 [10]; details: ref Watt et al. 2013 [10], cited from earlier work
T1 construct: purchased PerkinElmer Life and Analytical Sciences, Boston, MA
T1 sequence (P08912 1-532): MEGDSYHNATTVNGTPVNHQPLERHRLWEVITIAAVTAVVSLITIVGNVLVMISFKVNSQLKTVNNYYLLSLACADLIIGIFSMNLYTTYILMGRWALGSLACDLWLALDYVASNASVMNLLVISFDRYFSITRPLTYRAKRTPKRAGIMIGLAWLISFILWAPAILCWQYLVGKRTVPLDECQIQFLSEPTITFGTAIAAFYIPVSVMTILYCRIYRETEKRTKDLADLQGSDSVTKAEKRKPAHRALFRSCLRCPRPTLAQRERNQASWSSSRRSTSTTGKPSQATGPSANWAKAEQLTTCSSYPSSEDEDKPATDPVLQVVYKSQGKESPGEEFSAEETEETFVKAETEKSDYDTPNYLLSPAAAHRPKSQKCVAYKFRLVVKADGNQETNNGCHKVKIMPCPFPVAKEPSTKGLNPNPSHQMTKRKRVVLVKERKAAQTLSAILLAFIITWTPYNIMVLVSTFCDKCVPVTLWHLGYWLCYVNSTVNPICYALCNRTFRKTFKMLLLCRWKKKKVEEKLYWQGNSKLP

[2] = target: T2, human M3 muscarinic receptor (Homo sapiens, UniProt P20309); parameters: method as in Watt et al. 2013 [10]; details: antagonist mode, ref Watt et al. 2013 [10], cited from earlier work
T2 construct: purchased PerkinElmer Life and Analytical Sciences, Boston, MA

[3] = tested on: antipsychotic-naïve Cebus Apella monkeys; test: d-Amphetamine-induced behaviour (unrest, stereotypies, arousal), video rating; type: in vivo; details: d-amphetamine 0.5 mg/kg
Protocol: Seven male Cebus Apella monkeys were used for evaluation the anti-amphetamine effect and the side effect profile of BuTAC. These monkeys were never before administered antipsychotics and had never experienced EPS, but had previously been administered amphetamine. For further evaluation of the EPS potential of BuTAC, the compound was tested in four male and female monkeys, all sensitized to drug-induced EPS by earlier chronic treatment with classical antipsychotic drugs.
All monkeys received all treatments with at least one week between tests and thus served as their own control. To avoid extended physical contact with the experimenter, the cages were reduced in sized by moving the back wall of the cage closer to the front wall to lightly immobilize the monkey while injecting the test substance in the thigh. This was done at 9 am at test days. After the appropriate pre-treatment time, the monkeys were videotaped in their cages at predefined time points after drug injection.
The rated primate behaviours and symptoms were the following: unrest, stereotypy, arousal, sedation and bradykinesia (Table 1). All monkeys were videotaped in 90-sec. sessions at specific time points throughout the test sessions. The videotapes were rated for amphetamine-induced behaviours and EPS by two experienced raters blinded to the treatment of the animal by means of a rating scale adapted from Peacock et al. and previously described by Andersen et al. (Table 1). In case of any discrepancy between the two ratings, the recording in question was re-evaluated and a rating agreed upon. The monkeys were videotaped at t = 30, 60, 90, 135, 150, 165, 180, 240, 300 min after BuTAC (or vehicle) administration. For the combination studies, d-amphetamine was injected at t = 120 min. Oral dyskinesia was measured in counts per 90 sec. The severity of other behaviours and symptoms were rated on a scale ranging from 0 (not present) to 6 (extreme presence).
For evaluation of anti-amphetamine effects, BuTAC was tested in doses of 0.001, 0.003, 0.01 mg/kg in combination with 0.5 mg/kg of d-amphetamine. BuTAC or peanut oil vehicle was injected s.c. at approximately 9 a.m. Pre-treatment time before s.c. injection of amphetamine was 120 min. For evaluation of side effects, BuTAC was tested alone at doses of 0.001, 0.003 and 0.01 mg/kg in antipsychotic-naïve monkeys and at doses of 0.003 and 0.01 mg/kg in monkeys sensitized to extrapyramidal side effects (EPS) by earlier long-term treatment with first generation antipsychotics. […] None of the animals were sacrificed.
Data from the experiments where BuTAC was administered alone collected at t = 60, 180, 300 min are presented. For the d-amphetamine / BuTAC study, data collected at t(amp) = 60, 120 and 180 min (t = 180, 240, 300 min) are reported. Data were analyzed for overall treatment effects at each time point by means of the non-parametric Friedman’s test for repeated measures. The Student Newman-Keuls comparison procedure was used to analyze for specific dose effects. For all tests, the accepted level of significance was p<0.05.

M4AChR = target: T3, M4AChR (Homo sapiens, UniProt P08173); test: Competitive radioligand binding
T3 sequence (P08173 1-479): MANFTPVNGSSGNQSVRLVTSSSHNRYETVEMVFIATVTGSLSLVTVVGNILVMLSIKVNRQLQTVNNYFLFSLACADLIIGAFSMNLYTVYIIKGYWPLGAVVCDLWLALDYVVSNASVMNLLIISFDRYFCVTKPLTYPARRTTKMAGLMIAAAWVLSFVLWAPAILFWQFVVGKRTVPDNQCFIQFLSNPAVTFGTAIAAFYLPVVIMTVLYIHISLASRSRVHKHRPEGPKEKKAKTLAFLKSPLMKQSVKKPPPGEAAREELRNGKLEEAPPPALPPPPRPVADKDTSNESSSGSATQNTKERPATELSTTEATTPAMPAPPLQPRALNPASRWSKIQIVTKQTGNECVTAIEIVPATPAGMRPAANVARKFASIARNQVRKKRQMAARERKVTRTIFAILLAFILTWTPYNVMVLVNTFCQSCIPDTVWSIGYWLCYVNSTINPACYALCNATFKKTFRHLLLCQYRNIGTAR

[4] = BuTAC 0.003 mg/kg s.c., at 180 min
[5] = BuTAC 0.01 mg/kg s.c., at 120 and 180 min

T2 sequence (P20309 whole entry): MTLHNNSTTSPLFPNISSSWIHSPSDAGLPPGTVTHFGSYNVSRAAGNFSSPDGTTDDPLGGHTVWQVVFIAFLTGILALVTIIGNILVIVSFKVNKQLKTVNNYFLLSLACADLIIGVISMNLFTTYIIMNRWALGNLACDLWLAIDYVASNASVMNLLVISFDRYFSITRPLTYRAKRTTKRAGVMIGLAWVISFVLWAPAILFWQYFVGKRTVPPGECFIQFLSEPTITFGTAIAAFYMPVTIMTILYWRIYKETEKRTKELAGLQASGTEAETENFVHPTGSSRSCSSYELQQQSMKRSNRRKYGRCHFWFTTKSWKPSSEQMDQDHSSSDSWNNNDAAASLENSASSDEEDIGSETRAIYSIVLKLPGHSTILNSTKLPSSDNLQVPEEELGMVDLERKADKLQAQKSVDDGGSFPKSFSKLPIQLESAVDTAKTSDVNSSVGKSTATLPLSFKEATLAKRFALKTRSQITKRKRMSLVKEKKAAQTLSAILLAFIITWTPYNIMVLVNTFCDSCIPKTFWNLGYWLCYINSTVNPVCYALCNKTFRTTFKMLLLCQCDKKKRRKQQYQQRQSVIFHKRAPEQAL

| Structure (SMILES) | Rel pEC50 ([1]; agonist mode, negative log-transformed) [M] | % Emax ([1]; agonist mode) [%] | Rel pIC50 ([1]; antagonist mode, negative log-transformed) [M] | % Inhibition ([1]; antagonist mode) [%] | Rel pIC50 ([2]; negative log-transformed) [M] | % Inhibition [2] [%] | Effect on d-amphetamine-induced arousal ([3]; BuTAC 0.001 mg/kg s.c., at 60 min) | Effect on amphetamine-induced stereotypies [3, 4] | Effect on amphetamine-induced unrest [3, 4] | Effect on amphetamine-induced stereotypies [3, 5] | Effect on amphetamine-induced unrest [3, 5] | Effect on d-amphetamine-induced arousal ([3]; BuTAC 0.003 and 0.01 mg/kg s.c., at 60, 120 and 180 min) | Ki (M4AChR) [nM] |
| --- | --- | --- | --- | --- | --- | --- | --- | --- | --- | --- | --- | --- | --- |
| CCCCSc1nsnc1[C@H]1CN2CCC[C@H]1C2 [BuTAC, (5R,6R)-6-(3-butylthio-1,2,5-thiadiazol-4-yl)-1-azabicyclo[3.2.1]octane] | 7.63 ± 7.41 | 10.77 ± 10.87 | 8.29 ± 8.16 | 96.31 ± 3.87 | 8.55 ± 8.59 | 100.00 ± 0.00 | counteracted | significantly reduced | significantly counteracted | significantly reduced | significantly counteracted | counteracted | – |
| CCCSc1nsnc1[C@H]1CN2CCC[C@H]1C2 [PTAC, (5R,6R) 6-(3-propylthio-1,2,5-thiadiazol-4-yl)-1-azabicyclo-[3.2.1]-octane] | – | – | – | – | – | – | – | – | – | – | – | – | 0.282 |
